Laboratory results as given in patent US10787423B2, “Piperazine and piperidine derivatives, their synthesis and use thereof in inhibiting VDAC oligomerization, apoptosis and mitochondria dysfunction” (THE NATIONAL INSTITUTE FOR BIOTECHNOLOGY IN THE NEGEV LTD., priority 2015, dated 2020).

Target: T1, rVDAC1-GFP2 / rVDAC1-Rluc in T-REx-293 cells (Rattus norvegicus, UniProt Q9Z2L0)
T1 construct: The rVDAC1 gene was cloned into BamHI and HindIII sites of the BRET2 plasmids (N2 variants); expressed in transfected cells; host or cells: T-REx-293 cells stably expressing hVDAC1-shRNA (T-REx-pS10)
Assay: BRET2 assay of VDAC1 oligomerization induced by apoptosis inducers (Method A)
Type: cell-based
Conditions: test compound 10 μM, 1 h pre-incubation; for BRET2, % of inhibition, As2O3: As2O3 60 μM (3 h); for BRET2, % of inhibition, STS: STS 1 μM (3 h); for BRET2, % of inhibition, Selenite: selenite 30 μM (3 h)
Description: BRET2 screening may be carried out as described in the art ([…] et al., (2010) Oligomerization of the mitochondrial protein voltage-dependent anion channel is coupled to the induction of apoptosis. Mol Cell Biol 30, 5698-5709). Plasmids encoding the fusion proteins rat(r)VDAC1-GFP2 and rVDAC1-luc were constructed using the BRET2 plasmids (Perkin Elmer, Waltham, Mass.). The rVDAC1 gene was cloned into BamHI and HindIII sites of the BRET2 plasmids (N2 variants) and amplified using the forward primer [NT] and the reverse primer [NT]. […] The cells were transfected using calcium phosphate method. Transfections were carried out with 0.2 μg of a plasmid coding for rVDAC1-Rluc and with 0.8 μg of a plasmid coding for rVDAC1-GFP2. As a negative control, cells were transfected with plasmids encoding for rVDAC1-Rluc (0.2 μg DNA) and GFP2 (0.8 μg). In another control (control cells), cells were also transfected with a plasmid encoding for rVDAC1-luc (0.2 μg) and plasmid pcDNA4/TO (0.8 μg). The BRET2 signal represents the ratio of the GFP2 fluorescence, measured at its emission wavelength (510 nm), over the light intensity (luminescence) emitted at 395 nm. All measurements were performed using the Infinite 200 ELISA reader (Tecan). BRET2 signals were defined as GFP2/Rluc intensity ratio and calculated as follows: DNA encoding fusion proteins rVDAC1-Rluc (in which RLuc was connected to rVDAC1 at the C terminal position through a linker (GGGS)) and rVDAC1-GFP2 (in which the GFP2 was fused to the rVDAC1 C terminus) was cloned into BRET2 vectors. rVDAC1-GFP2 and rVDAC1-Rluc were expressed in T-REx-293 cells stably expressing shRNA-hVDAC1 and a low level of endogenous hVDAC1 (referred to as T-REx-pS10 cells) hVDAC1-shRNA, being specific to human VDAC1, allowed the expression of rVDAC1 and decreased the participation of endogenous hVDAC1 in oligomerization, thereby enhancing the BRET2 signal. rVDAC1-GFP2 and rVDAC1-Rluc expression levels were correlated with the amount of plasmids used. […] Following incubation, cells were harvested using trypsin, washed twice with PBS by centrifugation at 1000×g, 5 min, resuspended in 200 μl of PBS and divided between two wells of a 96-well clear-bottom plate (Grenier). […] The screening was conducted using BRET2 assay as described above. […] After treatment, the medium was removed and assayed for BRET2 signals as described above. Liquid handling was done with the Tecan (Männedorf, Switzerland) Freedom 150 Robotic & MCA Liquid Handling System, while luciferase luminescence and fluorescence readings were obtained a robot-integrated Tecan Infinite M1000 reader. Method A was used for screening of VDAC1 oligomerization inhibitors. […] Table 2 provides a summary of BRET2-based screen results of the anti-VDAC1 oligomerization activity of compounds from the NCI library. Results are presented as percent inhibition of the BRET2 signal induced by the indicated pro-apoptotic agent.

T1 sequence (Q9Z2L0 with tags, fused parts or gaps limits assumed): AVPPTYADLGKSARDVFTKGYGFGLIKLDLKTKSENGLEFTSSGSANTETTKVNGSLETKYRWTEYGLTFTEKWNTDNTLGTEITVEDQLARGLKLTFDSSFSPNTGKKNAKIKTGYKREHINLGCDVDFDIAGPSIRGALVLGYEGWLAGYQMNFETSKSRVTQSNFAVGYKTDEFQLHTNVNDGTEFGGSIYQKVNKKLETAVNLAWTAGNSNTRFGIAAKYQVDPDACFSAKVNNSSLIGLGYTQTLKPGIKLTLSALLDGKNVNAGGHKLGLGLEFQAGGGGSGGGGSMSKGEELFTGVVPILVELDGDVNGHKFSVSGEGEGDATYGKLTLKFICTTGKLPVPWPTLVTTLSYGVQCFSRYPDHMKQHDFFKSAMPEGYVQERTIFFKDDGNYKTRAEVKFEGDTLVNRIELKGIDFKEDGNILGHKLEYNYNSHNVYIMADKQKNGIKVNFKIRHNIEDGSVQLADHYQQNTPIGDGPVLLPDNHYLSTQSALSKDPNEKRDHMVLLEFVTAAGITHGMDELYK

| Structure (SMILES) | BRET2, % of inhibition, As2O3 [%] | BRET2, % of inhibition, STS [%] | BRET2, % of inhibition, Selenite [%] |
| --- | --- | --- | --- |
| Nc1nc(Nc2ccccc2)n[nH]1 [NSC 331208] | 86.4 | 0 | 28.3 |
| Cc1ccc(-n2nnnc2-c2cccnc2)cc1 [NSC 23247] | 97.3 | 0 | 52.1 |
| CCOc1cccc(/C=C2\NC(=S)N(c3ccccc3)C2=O)c1O [NSC 343966] | 39.4 | 0 | 20.1 |
| c1ccc2c(c1)[nH]c1c3ccccc3sc21 [NSC 605333] | 63.7 | 0 | 16 |
| O=C(Nc1ccc(Cl)c([N+](=O)[O-])c1)Nc1nc2ccccc2s1 [NSC 329249] | 82.8 | 12.1 | 22.4 |
| CCOC(=O)c1[nH]c(CO)c(C(=O)OCC)c1C [NSC 10768] | 52 | 0 | 9.6 |
| CN1CCN(C(=O)Nc2ccc([N+](=O)[O-])cc2)CC1 [NSC 36815] | 67.7 | 34.5 | 50 |
| CN(C)c1ccc(N=Nc2cccc3ccoc23)cc1 [NSC 680515] | 87.8 | 33.4 | 66.3 |
| Nc1ccc(C(=O)Nc2cccc(N)c2)cc1 [NSC 15362] | 98 | 39.7 | 41 |
| O=C(Nc1ccc(Nc2ccncc2)cc1)c1ccc(Nc2ccnc3ccc([N+](=O)[O-])cc23)cc1 [NSC 146771] | 70.7 | 41.2 | 68.1 |
| Cc1ccc([N+](=O)[O-])cc1NC(=O)Nc1ccc(S(N)(=O)=O)cc1 [NSC 146554] | 100 | 0 | 71.8 |
| O=C(O)c1ccccc1C(=O)Nc1ccccc1[N+](=O)[O-] [NSC 41066] | 48.8 | 0 | 0 |
| COC(=O)C1(C)Cc2cc(OC(C)=O)c(OC(C)=O)cc2N1 (stereo not drawn) [NSC 341956] | 51.5 | 0 | 24 |
| Cc1ccc(NC(=O)Nc2nc3ccccc3s2)cc1NC(=O)Nc1nc2ccccc2s1 [NSC 319990] | 96.2 | 22 | 43.2 |
| CC#CC#Cc1cccc(=O)o1 [NSC 109292] | 75.4 | 0 | 0 |
| O=C(O)c1cc2ccccc2cc1Nc1ccccc1 [NSC 40275] | 64.8 | 16.8 | 35.2 |
| O=C(Nc1cccc([N+](=O)[O-])c1)c1cccc(C(=O)Nc2cccc([N+](=O)[O-])c2)c1 [NSC 204232] | 90.3 | 0 | 32.5 |
| S=c1nc[nH]c2c1ncn2C1CCCC1 [NSC 19487] | 88.8 | 32.6 | 68.6 |
| Oc1ccc(Cc2ccc(Cl)cc2)c(O)c1 [NSC 11150] | 95.2 | 11.6 | 67 |
| CCCCC(=O)N1CCCC(C)C1 (stereo not drawn) [NSC 191029] | 86.5 | 0 | 36.4 |
| CCOc1ccc(/C=C2\CCc3ccccc3C2=O)cc1 [NSC 252172] | 83.1 | 44.1 | 50 |
| O=c1c(-c2ccc(O)cc2)coc2cc(O)cc(O)c12 [NSC 36586] | 49 | 0 | 0 |
| CCOC(=O)N1CCN(Cc2c(O)ccc3ccccc23)CC1 [NSC 12262] | 81.5 | 0 | 67.4 |
| O=C(O)c1ccc(O)c(O)c1 [NSC 16631] | 0 | 30.5 | 41.5 |
| Clc1ccc(-c2nc(-c3cc4cc(Cl)ccc4o3)cs2)cc1 [NSC 321502] | 67.3 | 22.4 | 46.5 |
| O=C(/C=C/c1ccccc1Cl)c1ccc(O)cc1 [NSC 13151] | 67 | 0 | 0 |
| NC(=O)c1ccc(Oc2ccc(C(N)=O)cc2)cc1 [NSC 39047] | 70.2 | 39.1 | 54 |
| O=C1CN2CCC1C/C2=C\c1ccnc2c(Cl)cccc12 (stereo not drawn) [NSC 132868] | 55.5 | 0 | 41.4 |
| O=C(O)c1cccc2c1C(=O)c1cccc3snc-2c13 [NSC 39938] | 48.7 | 0 | 18.8 |
| O=C(Nc1ccccc1-c1ccccc1)C(=O)Nc1ccccc1-c1ccccc1 [NSC 338042] | 44.7 | 0 | 80.2 |
